Blank lines part the entries; values can stand above or below the compound they belong to.
Key:
[1] = Direct blending of unencapsulated medicament with cyanoacrylic ester (storage stability); format: physicochemical
Method: Adhesive formulations including unencapsulated antibiotics were investigated. The medicaments were vacuum dried for 6 hours at room temperature in the presence of phosphorous pentoxide to remove the residual water. Direct blending of the medicaments with cyanoacrylic ester was conducted in a drying chamber protected by a high-purity nitrogen atmosphere.

[2] = Release of medicament from solidified adhesive film into physiologic saline; format: physicochemical; details: extract in physiologic saline, UV spectroscopy
Method: Samples of adhesive containing either encapsulated Penicillin G or unencapsulated Penicillin G were prepared as described above. Solidification of the adhesives was carried out in moist air so as to provide an accelerated solidification rate. The solidified adhesives having a thickness of about 1 mm were cut into small pieces which were immersed in physiologic saline at room temperature. The aqueous extracts were examined using UV spectroscopy.

[3] = Stability of medicament in aqueous solution or extract (UV, HPLC); details: physiologic saline or aqueous solution
From the text: Because the UV spectra of DSP and the extractive aqueous solution of Super Glue™ have overlapped absorptions at 240 nm, the release behavior of cyanoacrylate adhesives containing DSP microcapsules was studied by HPLC instead of UV spectroscopy.

[4] = Solubility in formaldehyde acetone crosslinking solution; format: physicochemical
From the text: While not wishing to be limited to any particular mechanism, it is believed that the crosslinking step accounts, in part, for the encapsulation efficiency.

SMILES: Nc1ccc(S(N)(=O)=O)cc1 [Sulfanilamide, Sulfanilamidum Crystallinum Sterile]
- shelf life of cyanoacrylate adhesives in the presence of unencapsulated medicament ([1]; direct blending under nitrogen): more than 24 hours

SMILES: CC1(C)S[C@@H]2[C@H](NC(=O)Cc3ccccc3)C(=O)N2[C@H]1C(=O)[O-].[Na+] [Penicillin G, Penicillin G Sodium Salt]
- release from solidified adhesive film [2]: no detectable release
- stability in aqueous solution / aqueous extract [3]: observed to decompose during the release process
- observation on direct mixing with Super Glue ([1]; unencapsulated medicament): Agglomeration was observed

- solubility in a formaldehyde acetone solution [4]: relatively weak solubility
- time to solidification after direct mixing ([1]; methyl cyanoacrylate (Super Glue) with dry powder, room temperature): about 3 hours
SMILES: COc1c(N2CCNC(C)C2)c(F)cc2c(=O)c(C(=O)O)cn(C3CC3)c12 (stereo not drawn) [Gatifloxacin]
